One block for each compound: values may come before it.
What was measured:
[1] = cited from earlier work; for taste: as a dry powder and as an alcoholic or aqueous solution; for pungency: compared with capsaicin
[2] = tested on: professional sensory panel; assay: aqueous solutions in 0.5% salt and 0.05% MSG tasted by a professional sensory panel; assay type: in vivo
Procedure: Six aqueous solutions were prepared: A. 0.5% salt and 0.05% MSG The solutions were tasted by a professional sensory panel. Three aqueous solutions were prepared: A. 0.5% salt and 0.05% MSG The solutions were tasted by a professional sensory panel. Solution A was described as: “salty”. […] Three aqueous solutions were prepared: A. 0.5% salt and 0.05% MSG The solutions were tasted by a professional sensory panel. Solution A was described as: “salty” and “umami”.

[3] = tested on: sensory panel; assay: tomato soups (10 g powder in 100 ml hot water) tasted and evaluated by a sensory panel; assay type: in vivo; conditions: for perceived saltiness versus product A (control) / taste description: 50% reduced salt
Procedure: [table] 10 Gram of each composition was mixed with 100 ml hot water to obtain tomato soups. The different soups were tasted and evaluated by a sensory panel.

[4] = tested on: sensory panel; assay: sweetened 0% fat red fruit yoghurts tasted and evaluated by a sensory panel; assay type: in vivo
Procedure: Three yoghurts were prepared according to the recipe in table 2. [table] All products were tasted and evaluated by a sensory panel.

[5] = 0.1 ppt in 0.5% salt and 0.05% MSG (Example 4, solution C)
[6] = 1 ppb in 0.5% salt and 0.05% MSG (Example 3, solution E)
[7] = 10 ppt in 0.5% salt and 0.05% MSG (Example 4, solution D)
[8] = 30 ppb in 0.5% salt and 0.05% MSG (Example 3, solution F)
[9] = product C: 0.005 mg per 100 g tomato soup powder
[10] = Yoghurt B: 0.003 microgram per 100 g yoghurt
[11] = product D: 0.3 mg per 100 g tomato soup powder
[12] = Yoghurt C: 0.15 microgram per 100 g yoghurt

Compound: phenylvanillylthiourea
taste [1]: tasteless
pungency [1]: property of pungency but to a lesser degree than capsaicin

taste strength compared with solution D (0.6 ppb lactoyl-GMP) [2, 6]: stronger than D
strength of the taste compared with solution B (0.6 ppb lactoyl-GMP) [2, 7]: comparable
taste strength compared with solution E (1 ppb acetyl-GMP) [2, 8]: stronger than E
Compound: CC(=O)Nc1nc2c(ncn2[C@@H]2O[C@H](COP(=O)(O)O)[C@@H](O)[C@H]2O)c(=O)[nH]1 [acetyl-GMP, N-acetyl-GMP]
share of the panel that found this detectable [2, 5]: 40%
taste description [2, 5]: “sweet”, “umami”
taste description [2, 6]: “salivating”, “salty”
taste description ([2]; 1 ppt in 0.5% salt and 0.05% MSG (Example 8, solution C)): “sweet”, “umami”
share of the panel that found this detectable [2, 7]: 100%
taste description [2, 7]: “sweet”, “umami”
taste description [2, 8]: “salivating”, “salty”
preference versus product B (50% reduced salt) [3, 9]: clearly preferred over product B
perceived saltiness versus product A (control) [3, 9]: comparable to that of product A
taste description [3, 9]: “more taste”, “more impact”, “more kokumi”, “long lasting” and “salivating”
preference versus product A (yoghurt without modulator) [4, 10]: clearly preferred over product A
strength compared with product C (0.15 microgram lactoyl-GMP per 100 g) [4, 10]: comparable
taste description [4, 10]: sweet, fuller, more natural berry-like, fruity and more balanced flavour

Compound: COc1cc(CNC(N)=S)ccc1O [vanillylthiourea]
taste [1]: tasteless

Compound: p-tolylvanillylthiourea
pungency [1]: property of pungency but to a lesser degree than capsaicin

Compound: COc1cc(CNC(N)=O)ccc1O [Vanillylurea]
taste [1]: tasteless

Compound: Nc1nc2c(ncn2[C@@H]2O[C@H](COP(=O)(O)O)[C@@H](O)[C@H]2O)c(=O)[nH]1 [GMP, guanosine 5′-monophosphate, reference compound]
taste description ([2]; 1 ppm in 0.5% salt and 0.05% MSG (Example 3, solution B)): “sweet”, “lingering umami”

Compound: o-tolylvanillylthiourea
pungency [1]: property of pungency but to a lesser degree than capsaicin

Compound: CC(O)C(=O)Nc1nc2c(ncn2[C@@H]2O[C@H](COP(=O)(O)O)[C@@H](O)[C@H]2O)c(=O)[nH]1 (stereo partly drawn) [lactoyl-GMP, reference compound]
taste description ([2]; 0.6 ppb in 0.5% salt and 0.05% MSG): “sweet”, “lingering umami”, “more salivating”
taste strength compared with solution C (0.2 ppm process flavour containing 0.3% lactoyl-GMP) ([2]; 0.6 ppb in 0.5% salt and 0.05% MSG (Example 3, solution D)): stronger than C
preference versus product B (50% reduced salt) [3, 11]: clearly preferred over product B
perceived saltiness versus product A (control) [3, 11]: comparable to that of product A
taste description [3, 11]: “more taste”, “more impact”, “more kokumi”, “long lasting” and “salivating”
preference versus product A (yoghurt without modulator) [4, 12]: clearly preferred over product A
taste description [4, 12]: sweet, fuller, more natural berry-like, fruity and more balanced flavour

— patent US8293215B2, “Flavour modulating derivative of a carboxylic acid and a purine, pyrimidine, nucleoside, or nucleotide” (Givaudan Nederland Services B.V., priority 2006, dated 2012)
